Measured values taken from ChEMBL document CHEMBL1201862, “PubChem BioAssay data set” (2004).
Calls of active or inactive are those of the source.

Assays:
Streptococcus = assay: Group A Streptococcus viability loss, dose response, counter-screen for streptokinase expression inhibitor project, luminescence, BacTiterGlo (AID 1915); format: functional, organism-based;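 also: potency for reduction of bacterial viability or growth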
Streptokinase A = molecular target: T1, Streptokinase A (Streptococcus pyogenes serotype M1, UniProt P10520); assay: S. pyogenes streptokinase expression inhibitors, potency, dose response, plasminogen activation absorbance, OD405 (AID 1914); format: functional, Streptococcus pyogenes M1 GAS;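 also: secreted streptokinase activity via plasminogen activation per viability signal from cell pellet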
T1 sequence (P10520 whole entry): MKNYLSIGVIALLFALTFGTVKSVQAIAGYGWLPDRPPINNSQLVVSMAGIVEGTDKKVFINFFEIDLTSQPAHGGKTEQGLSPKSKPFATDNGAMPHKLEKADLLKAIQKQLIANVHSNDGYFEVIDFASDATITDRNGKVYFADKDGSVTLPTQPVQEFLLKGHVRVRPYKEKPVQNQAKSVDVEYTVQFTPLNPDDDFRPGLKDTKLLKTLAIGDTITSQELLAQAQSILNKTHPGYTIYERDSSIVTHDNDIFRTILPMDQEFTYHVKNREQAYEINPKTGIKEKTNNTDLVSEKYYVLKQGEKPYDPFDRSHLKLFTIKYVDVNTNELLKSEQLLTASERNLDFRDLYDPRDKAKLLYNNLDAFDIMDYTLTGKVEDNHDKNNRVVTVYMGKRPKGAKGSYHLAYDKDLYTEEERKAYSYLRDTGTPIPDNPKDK

[1] = cytotoxicity toward NIH3T3 fibroblasts, dose response, counter-screen, cell-based, ATP luminescence, mouse fibroblasts (AID 2010); format: functional;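 also: cells exposed to compound for about 90 hours before reading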
[2] = system: Streptococcus sp. 'group A'; assay: growth inhibition of control SK(-) GAS strain, dose response, counter-screen for streptokinase expression inhibitor project, luminescence, kanamycin, BacTiterGlo, confirmation (AID 1900); format: functional, organism-based
[3] = inhibitors of intracellular T. cruzi replication, confirmation, NIH3T3 host cells, beta-gal luminescence (AID 2044); format: functional, cell-based;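 also: intracellular parasites grown in NIH/3T3 mouse fibroblasts as host cells; luminescent beta-galactosidase reporter signal from transgenic T. cruzi replicating inside host cells; inhibitors lower the luminescence signal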
[4] = control 3'UTR Renilla luciferase suppression, dose response, counter-screen for Shn3 inhibitor project, cell-based, Clone20-Shn3RL, cherry-picked (AID 624133); format: functional
[5] = Shn3 3'UTR reporter inhibitors, dose response, cell-based, Clone20 osteoblasts, firefly luciferase, cherry-picked (AID 624132); format: functional;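 also: firefly luciferase luminescence from reporter carrying the Shn3 3'UTR in osteoblasts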
INS1 = assay: beta cell apoptosis inhibitors, cytokine rescue, dose response, luminescence, retest (AID 449756); format: functional, cell-based; conditions: Rattus norvegicus;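 also: cell death triggered by IL-1 beta plus TNF-alpha plus IFN-gamma mixture; protective hits raise ATP signal compared with cytokine alone wells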
Cytochrome P450 2C19 = Cytochrome P450 2C19 (Homo sapiens, UniProt P33261); assay: Cytochrome panel assay with activity outcomes. Panel member name: p450-cyp2c19 Compounds with AC50 equal or less than 10 uM are considered active; format: functional
Sequence of Cytochrome P450 2C19 (P33261 whole entry): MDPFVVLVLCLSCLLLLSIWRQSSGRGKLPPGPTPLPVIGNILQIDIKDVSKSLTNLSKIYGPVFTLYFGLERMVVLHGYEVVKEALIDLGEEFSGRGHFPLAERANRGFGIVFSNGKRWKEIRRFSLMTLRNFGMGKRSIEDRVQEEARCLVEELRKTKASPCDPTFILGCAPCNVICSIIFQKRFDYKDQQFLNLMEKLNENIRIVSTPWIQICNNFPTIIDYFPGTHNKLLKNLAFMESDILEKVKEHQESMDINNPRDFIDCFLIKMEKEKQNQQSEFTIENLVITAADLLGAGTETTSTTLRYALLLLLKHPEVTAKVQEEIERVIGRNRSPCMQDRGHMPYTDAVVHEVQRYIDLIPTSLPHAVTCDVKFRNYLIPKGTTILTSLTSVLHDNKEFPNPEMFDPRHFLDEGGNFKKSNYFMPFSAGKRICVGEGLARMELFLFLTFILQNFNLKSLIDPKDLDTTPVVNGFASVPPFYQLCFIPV

[6] = C. albicans growth with fluconazole, confirmation, fluorescence, retest (AID 2467); format: functional, cell-based
[7] = NIH-3T3 fibroblast cytotoxicity, dose response, cytotoxicity control, cell-based, fluorescence, Alamar Blue, secondary assay (AID 2327); format: functional;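 also: NIH-3T3 mouse fibroblasts cultured with fluconazole at 8 µg/mL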
Cytochrome P450 3A4 = Cytochrome P450 3A4 (Homo sapiens, UniProt P08684);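 also: CYP3A4 tested as one member of a cytochrome P450 panel screen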
Sequence of Cytochrome P450 3A4 (P08684 whole entry): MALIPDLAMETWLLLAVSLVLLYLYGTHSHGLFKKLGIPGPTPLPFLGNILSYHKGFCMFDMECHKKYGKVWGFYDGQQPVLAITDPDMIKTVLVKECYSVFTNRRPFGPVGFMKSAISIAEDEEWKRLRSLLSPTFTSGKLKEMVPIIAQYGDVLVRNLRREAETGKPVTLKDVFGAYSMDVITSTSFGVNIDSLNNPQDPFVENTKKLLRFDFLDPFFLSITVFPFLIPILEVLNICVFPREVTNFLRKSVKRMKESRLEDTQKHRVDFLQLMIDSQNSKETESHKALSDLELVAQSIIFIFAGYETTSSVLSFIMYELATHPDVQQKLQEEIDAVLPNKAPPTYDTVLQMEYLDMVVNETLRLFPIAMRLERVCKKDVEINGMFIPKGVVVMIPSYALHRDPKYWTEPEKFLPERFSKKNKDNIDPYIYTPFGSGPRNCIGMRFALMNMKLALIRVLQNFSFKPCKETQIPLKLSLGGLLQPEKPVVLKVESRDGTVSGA

Cytochrome P450 2C9 = Cytochrome P450 2C9 (Homo sapiens, UniProt P11712)
Sequence of Cytochrome P450 2C9 (P11712 whole entry): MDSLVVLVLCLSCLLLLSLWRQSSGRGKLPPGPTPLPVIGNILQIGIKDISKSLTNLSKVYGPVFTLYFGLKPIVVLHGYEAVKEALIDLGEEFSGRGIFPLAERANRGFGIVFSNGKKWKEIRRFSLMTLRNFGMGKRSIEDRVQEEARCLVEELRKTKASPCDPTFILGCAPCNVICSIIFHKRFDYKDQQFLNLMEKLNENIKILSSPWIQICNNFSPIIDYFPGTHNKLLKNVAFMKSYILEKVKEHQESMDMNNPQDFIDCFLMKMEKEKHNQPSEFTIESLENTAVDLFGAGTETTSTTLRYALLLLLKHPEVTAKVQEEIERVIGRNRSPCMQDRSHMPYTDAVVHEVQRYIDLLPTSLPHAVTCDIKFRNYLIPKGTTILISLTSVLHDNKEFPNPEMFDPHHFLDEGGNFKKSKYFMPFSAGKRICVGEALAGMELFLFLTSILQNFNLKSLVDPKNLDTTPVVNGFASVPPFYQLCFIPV

Cytochrome P450 2D6 = Cytochrome P450 2D6 (Homo sapiens, UniProt P10635);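 also: CYP2D6 member of a cytochrome P450 panel assay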
Sequence of Cytochrome P450 2D6 (P10635 whole entry): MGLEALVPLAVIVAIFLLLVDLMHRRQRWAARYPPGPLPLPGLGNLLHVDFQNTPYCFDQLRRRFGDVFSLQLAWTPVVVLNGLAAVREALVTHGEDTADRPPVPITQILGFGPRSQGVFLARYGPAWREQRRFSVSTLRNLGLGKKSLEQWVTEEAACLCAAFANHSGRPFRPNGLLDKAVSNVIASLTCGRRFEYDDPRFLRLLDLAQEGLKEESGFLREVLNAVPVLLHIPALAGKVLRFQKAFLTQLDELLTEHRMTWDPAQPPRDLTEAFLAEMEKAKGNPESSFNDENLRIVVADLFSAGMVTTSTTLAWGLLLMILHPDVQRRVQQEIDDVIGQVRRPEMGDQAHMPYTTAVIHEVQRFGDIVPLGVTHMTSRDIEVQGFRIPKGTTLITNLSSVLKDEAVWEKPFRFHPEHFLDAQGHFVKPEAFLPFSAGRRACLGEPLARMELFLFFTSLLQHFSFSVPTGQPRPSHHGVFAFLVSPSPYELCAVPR

H4 = assay: Luminescence Cell-Based Dose Response HTS to Identify Activators of 5'UTR Stem-Loop Driven Prion Protein mRNA Translation in H4 Neuroglioblastoma Cells. [Related pubchem assays: 1829 (Project Summary), 1814 (Primary HTS)]; format: functional; conditions: Homo sapiens
[8] = Luminescence Cell-Based Dose Response HTS to Identify Activators of Luciferase Translation or Activity in H4 […] Cells. [Related pubchem assays: 1829 (Project Summary), 1814 (Primary HTS)]; format: functional
Cytochrome P450 1A2 = molecular target: T2, Cytochrome P450 1A2 (Homo sapiens, UniProt P05177);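 also: PubChem cytochrome P450 panel assay, CYP1A2 panel member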
T2 sequence (P05177 whole entry): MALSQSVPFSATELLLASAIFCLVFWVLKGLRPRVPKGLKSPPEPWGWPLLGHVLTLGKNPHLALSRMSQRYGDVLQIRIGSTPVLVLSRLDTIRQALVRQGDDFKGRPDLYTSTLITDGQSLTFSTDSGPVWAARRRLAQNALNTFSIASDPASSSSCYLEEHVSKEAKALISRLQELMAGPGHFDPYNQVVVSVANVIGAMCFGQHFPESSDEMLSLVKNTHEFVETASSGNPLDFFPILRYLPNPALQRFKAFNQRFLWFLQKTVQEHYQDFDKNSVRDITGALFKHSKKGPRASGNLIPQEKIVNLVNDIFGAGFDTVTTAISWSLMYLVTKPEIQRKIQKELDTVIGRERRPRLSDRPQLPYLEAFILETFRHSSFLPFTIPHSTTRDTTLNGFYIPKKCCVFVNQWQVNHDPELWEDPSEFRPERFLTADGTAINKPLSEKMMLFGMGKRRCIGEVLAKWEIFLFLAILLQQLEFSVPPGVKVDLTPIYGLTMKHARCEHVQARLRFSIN

Cc1cccc(CSc2nc(N)c(C#N)c(-c3cccs3)c2C#N)c1
EC50 (Streptococcus): > 150 µM (not active)
EC50 (Streptokinase A): 4.93 µM (active)
EC50 [1]: > 60 µM (inconclusive)
EC50 [2]: 5.04 µM (active)
EC50 [3]: 2.31 µM (active)

C=C1C(=O)C23C(O)C1CCC2C12COC3(O)C(O)C1C(C)(C)CCC2O (stereo not drawn)
AC50 [4]: 8.14 µM (active)
AC50 [5]: 3.3 µM (active)

O=C(CNC(=O)c1ccc2c(c1)OCO2)N/N=C/c1cc(Br)ccc1O
EC50 (Streptococcus): 25.2 µM (inconclusive)
EC50 (Streptokinase A): > 150 µM (not active)
AC50 (INS1): 3.36 µM (active)
EC50 [2]: 10.1 µM (active)

COc1ccc(NC(=O)COC(=O)Cn2c(C)nc3ccccc32)cc1OC
AC50 (Cytochrome P450 2C19; read-out: AC50): 3.55 µM (inconclusive)

C/C(=N\O)c1cc(Cl)cc(Cl)c1O
EC50 [6]: 4.41 µM (active)
EC50 [7]: > 160 µM (inactive)

C/C(=N\NC(=O)c1cccc(Br)c1)c1ccc(Br)cc1
AC50 (Cytochrome P450 3A4): 28.2 µM (inconclusive)
AC50 (Cytochrome P450 2C19; read-out: AC50): 0.224 µM (inconclusive)

CC(C)c1ccc(COc2ccc(C(=O)N3CCOCC3)cc2)cc1
AC50 (INS1): 9.42 µM (active)

CN(Cc1ccco1)c1ncnc2ccc(-c3cccc(NS(C)(=O)=O)c3)cc12
AC50 (Cytochrome P450 2C9): 0.794 µM (inconclusive)

Cc1ccc(-c2c[n+](-c3ccc(OC(F)F)cc3)c3n2CCCCC3)cc1
EC50 [6]: > 38 µM (not active)
AC50 (INS1): 1.52 µM (active)
EC50 [7]: > 150 µM (inconclusive)

O=c1ccc2[nH]cc(C3=CCNCC3)c2[nH]1
AC50 (Cytochrome P450 2C9): 7.94 µM (inconclusive)

CCOC(=O)c1sc(NC(C)=O)nc1-c1ccccc1
AC50 (Cytochrome P450 2C19; read-out: AC50): 10 µM (inconclusive)

CS(=O)(=O)N1CCC2(CCN(Cc3ccncc3)CC2)CC1
AC50 (Cytochrome P450 3A4): 12.6 µM (inconclusive)
AC50 (Cytochrome P450 2C9): 31.6 µM (inconclusive)
AC50 (Cytochrome P450 2D6): 25.1 µM (inconclusive)

N#CC(C#N)=Cc1cc(O)c(O)c(O)c1 [TYRPHOSTIN 25]
AC50 (Cytochrome P450 2C9): 15.8 µM (inconclusive)

COc1cccc(-c2ccc3ncnc(Nc4ccccc4)c3c2)c1
AC50 (Cytochrome P450 2C9): 0.631 µM (inconclusive)

CCN(CC)c1nc(N)c2c(N)nc3c(c2c1C#N)CC(c1ccccc1)O3 (stereo not drawn)
EC50 [6]: > 38 µM (not active)
EC50 [7]: > 160 µM (inactive)

COc1ccc(-c2nc(-c3ccncc3)no2)cc1OC
EC50 [6]: 5.21 µM (active)
EC50 [7]: > 160 µM (inactive)

CCN(CC)S(=O)(=O)c1cccc(NC(=O)c2cc(-c3cccs3)nn2-c2ccccc2)c1
AC50 (INS1): 10.3 µM (active)

CCOC(=O)CSc1n[nH]c(-c2cccnc2)n1
AC50 (Cytochrome P450 3A4): 15.8 µM (inconclusive)
AC50 (Cytochrome P450 2C19; read-out: AC50): 11.2 µM (inconclusive)

Cc1ccc(-n2c(-c3ccccc3)cc(=O)nc2C)cc1
AC50 (Cytochrome P450 2C9): 7.08 µM (inconclusive)

COc1ccc(NC(=O)N2CCCC3(CCN(C(=O)c4ccc(OC)cc4)CC3)C2)cc1
AC50 (Cytochrome P450 2C9): 39.8 µM (inconclusive)

COc1ccc(OCCNS(=O)(=O)c2ccc3oc4ccccc4c3c2)cc1
AC50 (Cytochrome P450 2C9): 2.51 µM (inconclusive)

O=P([O-])([O-])C(Cl)(Cl)P(=O)(O)O.[Na+].[Na+] [CLODRONATE DISODIUM]
AC50 (Cytochrome P450 2C19): inconclusive

CN1c2ccccc2C(O)=C(C(=O)Nc2ccccc2)S1(=O)=O
AC50 (Cytochrome P450 3A4): 39.8 µM (inconclusive)
AC50 (Cytochrome P450 2C19): inconclusive

N=c1c2ccccc2nc2n1CCCCCCCCCCC2
AC50 (INS1): 9.52 µM (active)

CO[C@@H](C)[C@](O)(C(=O)OCC1=CCN2CC[C@@H](O)[C@H]12)C(C)C
AC50 (Cytochrome P450 2D6): 3.98 µM (inconclusive)
AC50 (Cytochrome P450 2C19): inconclusive

Oc1c(Br)cc(Br)cc1Oc1ccc(Br)cc1Br
EC50 (Streptococcus): 2.73 µM (active)
EC50 (Streptokinase A): 0.753 µM (active)
EC50 [6]: > 38 µM (not active)
EC50 [2]: 1.33 µM (active)
EC50 [7]: > 150 µM (inactive)

O=C(O)CSCC(=O)N(Cc1ccccc1)c1nc(-c2ccccc2)c(-c2ccccc2)s1
EC50 (Streptococcus): 8.03 µM (active)
EC50 (Streptokinase A): 2.81 µM (active)
EC50 [2]: 0.996 µM (active)

Cc1ccc(-c2nnc(Nc3ccccc3)c3ccccc23)cc1S(=O)(=O)NCC1CCCO1 (stereo not drawn)
EC50 [6]: 5.07 µM (active)
EC50 [7]: 25 µM (active)

COCCn1c(=O)c(-c2ccc(Cl)cc2)nc2cnc(OC)nc21
AC50 (Cytochrome P450 2C9): 39.8 µM (inconclusive)
AC50 (Cytochrome P450 2D6): 25.1 µM (inconclusive)

COc1ccc(C2N=C(Nc3ccc(C)cc3)Nc3nc(C)cc(=O)n32)cc1 (stereo not drawn)
EC50 [6]: > 38 µM (not active)
EC50 [7]: > 160 µM (inactive)

Cc1ccc(Nc2nc(=O)c3cccnc3s2)cc1
EC50 (H4): > 120 µM (not active)
EC50 [8]: 2.71 µM (active)

Cc1ccc(C(=O)Cn2cccn2)cc1
EC50 [6]: > 38 µM (not active)
EC50 [7]: > 160 µM (inconclusive)

CC(=O)NCCNc1nc(-c2cccc(NS(C)(=O)=O)c2)nc2ccccc12
AC50 (Cytochrome P450 2D6): 10 µM (inconclusive)
AC50 (Cytochrome P450 2C19; read-out: AC50): 39.8 µM (inconclusive)

Cc1ccc(-c2csc(NNC(=O)c3ccccc3)n2)cc1
EC50 (Streptococcus): > 150 µM (not active)
EC50 (Streptokinase A): > 150 µM (not active)
EC50 [2]: 4.37 µM (active)

CCCNC(=O)Cn1cnc2sc(C(=O)Nc3ccc4c(c3)OCO4)c(C)c2c1=O
AC50 (Cytochrome P450 3A4): 1.41 µM (inconclusive)
AC50 (Cytochrome P450 2D6): 5.01 µM (inconclusive)
AC50 (Cytochrome P450 2C19; read-out: AC50): 0.00562 µM (inconclusive)

O=C(Oc1c(Cl)cc(Cl)c2cccnc12)N1CCOCC1
EC50 [6]: > 38 µM (not active)
EC50 [7]: > 150 µM (inactive)

COC(=O)[C@@]1(Cc2ccc(OC)cc2)[C@H]2c3cc(C(=O)N4CCCC4)n(Cc4nc5ccccc5[nH]4)c3C[C@H]2CN1C(=O)c1ccccc1
AC50 (Cytochrome P450 2C19; read-out: AC50): 20 µM (inconclusive)

Cn1c(CCN2CCCCC2)nc2cc([N+](=O)[O-])ccc21
AC50 (Cytochrome P450 2D6): 14.1 µM (inconclusive)
AC50 (Cytochrome P450 2C19): inconclusive

COc1ccc2[nH]cc(CCNc3ncnc4ccc(-c5c(C)noc5C)cc34)c2c1
AC50 (Cytochrome P450 2C9): 0.501 µM (inconclusive)

CC(C)(C)c1ccc(OCC(=O)NNC(=O)Cc2cccs2)cc1
AC50 (Cytochrome P450 1A2): 28.2 µM (inconclusive)
AC50 (Cytochrome P450 2C19; read-out: AC50): 20 µM (inconclusive)

COCc1nnc(NC(=O)CCN2C(=O)c3ccccc3C2=O)s1
AC50 (Cytochrome P450 2C9): 31.6 µM (inconclusive)
AC50 (Cytochrome P450 2D6): 17.8 µM (inconclusive)

CN1CCC(=C2c3ccccc3Sc3ccccc32)CC1 [PIMETHIXENE]
AC50 (Cytochrome P450 2C19; read-out: AC50): 15.8 µM (inconclusive)

CCc1ccc(OCC(=O)NC(=S)Nc2ccc(F)cc2)c(Br)c1
AC50 (Cytochrome P450 2C9): 3.16 µM (inconclusive)
AC50 (Cytochrome P450 1A2): 3.16 µM (inconclusive)
